Like-named read-outs stand apart in the source and are kept apart here.
Tested on: patients with advanced TP53 wild-type (WT) leukemias
Description: Patients with Ph+ ALL who show early markers of relapse in MRD surveillance can be considered for inclusion as long as other therapies such as TKIs are exhausted or cannot be given. • Tumor of the patient is TP53 wt characterized by, at a minimum, no mutations in exons 5, 6, 7 and 8, and the p53 status was obtained from a bone-marrow sample, collected no longer than 3 months before signing the main ICF. Safety and Tolerability Profile of Regimen 1B in Hematological Tumors

COc1ncc(-c2nc3c(n2C(C)C)[C@H](c2ccc(Cl)cc2)N(c2cc(Cl)cn(C)c2=O)C3=O)c(OC)n1 [HDM201, (S)-5-(5-Chloro-1-methyl-2-oxo-1,2-dihydro-pyridin-3-yl)-6-(4-chloro-phenyl)-2-(2,4-dimethoxy-pyrimidin-5-yl)-1-isopropyl-5,6-dihydro-1H-pyrrolo[3,4-d]imidazol-4-one]
AE: Stomatitis (Regimen 1B N = 6, All Grades): 0 n (%)
AE: Subarachnoid Haemorrhage (Regimen 1B N = 6, All Grades): 0 n (%)
AE: Thrombocytopenia/Platelet Count Decreased (Regimen 1B N = 6, All Grades): 3 (50.0) n (%)
AE: Total (Regimen 1B N = 6, All Grades): 5 (83.3) n (%)
AE: Tumour Lysis Syndrome (Regimen 1B N = 6, All Grades): 0 n (%)
AE: Vomiting (Regimen 1B N = 6, All Grades): 0 n (%)
AE: Weight Decreased (Regimen 1B N = 6, All Grades): 0 n (%)
AE: White Blood Cell Count Decreased (Regimen 1B N = 6, All Grades): 0 n (%)
AE: Abdominal Discomfort (Regimen 1B N = 6, Grade 3/4): 0 n (%)
AE: Abdominal Pain (Regimen 1B N = 6, Grade 3/4): 0 n (%)
AE: Abdominal Pain Upper (Regimen 1B N = 6, Grade 3/4): 0 n (%)
AE: Acute Kidney Injury (Regimen 1B N = 6, Grade 3/4): 1 (16.7) n (%)
AE: Amylase Increased (Regimen 1B N = 6, Grade 3/4): 0 n (%)
AE: Anaemia (Regimen 1B N = 6, Grade 3/4): 2 (33.3) n (%)
AE: Arthralgia (Regimen 1B N = 6, Grade 3/4): 0 n (%)
AE: Asthenia (Regimen 1B N = 6, Grade 3/4): 0 n (%)
AE: Atrial Fibrillation (Regimen 1B N = 6, Grade 3/4): 0 n (%)
AE: Atypical Pneumonia (Regimen 1B N = 6, Grade 3/4): 0 n (%)
AE: Balanitis Candida (Regimen 1B N = 6, Grade 3/4): 0 n (%)
AE: Blood Alkaline Phosphatase Increased (Regimen 1B N = 6, Grade 3/4): 0 n (%)
AE: Blood Bilirubin Increased (Regimen 1B N = 6, Grade 3/4): 0 n (%)
AE: Blood Creatinine Increased (Regimen 1B N = 6, Grade 3/4): 0 n (%)
AE: Blood Phosphorus Increased (Regimen 1B N = 6, Grade 3/4): 0 n (%)
AE: Blood Uric Acid Increased (Regimen 1B N = 6, Grade 3/4): 0 n (%)
AE: Bone Marrow Failure (Regimen 1B N = 6, Grade 3/4): 0 n (%)
AE: C-Reactive Protein Increased (Regimen 1B N = 6, Grade 3/4): 0 n (%)
AE: Cardiac Failure (Regimen 1B N = 6, Grade 3/4): 0 n (%)
AE: Cellulitis (Regimen 1B N = 6, Grade 3/4): 1 (16.7) n (%)
AE: Chronic Graft Versus Host Disease (Regimen 1B N = 6, Grade 3/4): 0 n (%)
AE: Conjunctival Haemorrhage (Regimen 1B N = 6, Grade 3/4): 0 n (%)
AE: Constipation (Regimen 1B N = 6, Grade 3/4): 0 n (%)
AE: Cough (Regimen 1B N = 6, Grade 3/4): 0 n (%)
AE: Cystitis Viral (Regimen 1B N = 6, Grade 3/4): 0 n (%)
AE: Cytomegalovirus Infection (Regimen 1B N = 6, Grade 3/4): 0 n (%)
AE: Decreased Appetite (Regimen 1B N = 6, Grade 3/4): 0 n (%)
AE: Diarrhoea (Regimen 1B N = 6, Grade 3/4): 0 n (%)
AE: Dyspepsia (Regimen 1B N = 6, Grade 3/4): 0 n (%)
AE: Dyspnoea (Regimen 1B N = 6, Grade 3/4): 0 n (%)
AE: Epistaxis (Regimen 1B N = 6, Grade 3/4): 0 n (%)
AE: Fatigue (Regimen 1B N = 6, Grade 3/4): 0 n (%)
AE: Febrile Neutropenia (Regimen 1B N = 6, Grade 3/4): 2 (33.3) n (%)
AE: Gamma-Glutamyltransferase Increased (Regimen 1B N = 6, Grade 3/4): 0 n (%)
AE: General Physical Health Deterioration (Regimen 1B N = 6, Grade 3/4): 0 n (%)
AE: Gingival Bleeding (Regimen 1B N = 6, Grade 3/4): 0 n (%)
AE: Graft Versus Host Disease (Regimen 1B N = 6, Grade 3/4): 0 n (%)
AE: Haemoglobin Decreased (Regimen 1B N = 6, Grade 3/4): 0 n (%)
AE: Headache (Regimen 1B N = 6, Grade 3/4): 0 n (%)
AE: Hyperbilirubinaemia (Regimen 1B N = 6, Grade 3/4): 0 n (%)
AE: Hyperglycaemia (Regimen 1B N = 6, Grade 3/4): 0 n (%)
AE: Hyperkalaemia (Regimen 1B N = 6, Grade 3/4): 1 (16.7) n (%)
AE: Hyperphosphataemia (Regimen 1B N = 6, Grade 3/4): 0 n (%)
AE: Hyperuricaemia (Regimen 1B N = 6, Grade 3/4): 0 n (%)
AE: Hypoalbuminaemia (Regimen 1B N = 6, Grade 3/4): 0 n (%)
AE: Hypocalcaemia (Regimen 1B N = 6, Grade 3/4): 0 n (%)
AE: Hypokalaemia (Regimen 1B N = 6, Grade 3/4): 0 n (%)
AE: Hypomagnesaemia (Regimen 1B N = 6, Grade 3/4): 0 n (%)
AE: Hyponatraemia (Regimen 1B N = 6, Grade 3/4): 0 n (%)
AE: Hypophosphataemia (Regimen 1B N = 6, Grade 3/4): 0 n (%)
AE: Hypotension (Regimen 1B N = 6, Grade 3/4): 0 n (%)
AE: Infection (Regimen 1B N = 6, Grade 3/4): 0 n (%)
AE: Infective Glossitis (Regimen 1B N = 6, Grade 3/4): 0 n (%)
AE: Iron Overload (Regimen 1B N = 6, Grade 3/4): 0 n (%)
AE: Leukopenia (Regimen 1B N = 6, Grade 3/4): 0 n (%)
AE: Lip Oedema (Regimen 1B N = 6, Grade 3/4): 0 n (%)
AE: Lipase Increased (Regimen 1B N = 6, Grade 3/4): 0 n (%)
AE: Macular Oedema (Regimen 1B N = 6, Grade 3/4): 1 (16.7) n (%)
AE: Malaise (Regimen 1B N = 6, Grade 3/4): 0 n (%)
AE: Mouth Haemorrhage (Regimen 1B N = 6, Grade 3/4): 0 n (%)
AE: Nausea (Regimen 1B N = 6, Grade 3/4): 0 n (%)
AE: Neutropenia/Neutrophil Count Decreased (Regimen 1B N = 6, Grade 3/4): 1 (16.7) n (%)
AE: Oedema (Regimen 1B N = 6, Grade 3/4): 0 n (%)
AE: Oedema Peripheral (Regimen 1B N = 6, Grade 3/4): 0 n (%)
AE: Oral Disorder (Regimen 1B N = 6, Grade 3/4): 0 n (%)
AE: Pain In Extremity (Regimen 1B N = 6, Grade 3/4): 0 n (%)
AE: Pancytopenia (Regimen 1B N = 6, Grade 3/4): 1 (16.7) n (%)
AE: Pneumonia (Regimen 1B N = 6, Grade 3/4): 0 n (%)
AE: Pollakiuria (Regimen 1B N = 6, Grade 3/4): 0 n (%)
AE: Pyrexia (Regimen 1B N = 6, Grade 3/4): 0 n (%)
AE: Rash (Regimen 1B N = 6, Grade 3/4): 0 n (%)
AE: Rash Erythematous (Regimen 1B N = 6, Grade 3/4): 0 n (%)
AE: Rash Papular (Regimen 1B N = 6, Grade 3/4): 0 n (%)
AE: Rectal Haemorrhage (Regimen 1B N = 6, Grade 3/4): 0 n (%)
AE: Renal Failure (Regimen 1B N = 6, Grade 3/4): 0 n (%)
AE: Skin Exfoliation (Regimen 1B N = 6, Grade 3/4): 0 n (%)
AE: Stomatitis (Regimen 1B N = 6, Grade 3/4): 0 n (%)
AE: Subarachnoid Haemorrhage (Regimen 1B N = 6, Grade 3/4): 0 n (%)
AE: Thrombocytopenia/Platelet Count Decreased (Regimen 1B N = 6, Grade 3/4): 3 (50.0) n (%)
AE: Total (Regimen 1B N = 6, Grade 3/4): 5 (83.3) n (%)
AE: Tumour Lysis Syndrome (Regimen 1B N = 6, Grade 3/4): 0 n (%)
AE: Vomiting (Regimen 1B N = 6, Grade 3/4): 0 n (%)
AE: Weight Decreased (Regimen 1B N = 6, Grade 3/4): 0 n (%)
AE: White Blood Cell Count Decreased (Regimen 1B N = 6, Grade 3/4): 0 n (%)
AE: Abdominal Discomfort (Regimen 2A N = 7, All Grades): 0 n (%)
AE: Abdominal Pain (Regimen 2A N = 7, All Grades): 0 n (%)
AE: Abdominal Pain Upper (Regimen 2A N = 7, All Grades): 0 n (%)
AE: Acute Kidney Injury (Regimen 2A N = 7, All Grades): 1 (14.3) n (%)
AE: Amylase Increased (Regimen 2A N = 7, All Grades): 0 n (%)
AE: Anaemia (Regimen 2A N = 7, All Grades): 3 (42.9) n (%)
AE: Arthralgia (Regimen 2A N = 7, All Grades): 0 n (%)
AE: Asthenia (Regimen 2A N = 7, All Grades): 0 n (%)
AE: Atrial Fibrillation (Regimen 2A N = 7, All Grades): 0 n (%)
AE: Atypical Pneumonia (Regimen 2A N = 7, All Grades): 0 n (%)
AE: Balanitis Candida (Regimen 2A N = 7, All Grades): 0 n (%)
AE: Blood Alkaline Phosphatase Increased (Regimen 2A N = 7, All Grades): 0 n (%)
AE: Blood Bilirubin Increased (Regimen 2A N = 7, All Grades): 0 n (%)

Reference: patent publication US10966978B2, “Dose and regimen for HDM2-p53 interaction inhibitors” (Novartis AG, priority 2016, dated 2021)
